Tests used:
FaDu [1] = experiment: Cytotoxic activity against human FADU bulk cells incubated for 72 hrs by Cell-titer-Glo luminescence assay; format: functional, cell-based
A549 [2] = experiment: Cytotoxic activity against human A549 bulk cells incubated for 72 hrs by Cell-titer-Glo luminescence assay; format: functional, cell-based; conditions: A549, 72 h
ACHN [3] = experiment: Cytotoxic activity against human ACHN bulk cells incubated for 72 hrs by Cell-titer-Glo luminescence assay; format: functional, cell-based
A549 [4] = experiment: Cytotoxic activity against human A549 cancer stem cells incubated for 72 hrs by Cell-titer-Glo luminescence assay; format: functional, cell-based; conditions: A549, 72 h
[5] = molecular target: AMP-activated protein kinase, AMPK (Homo sapiens) (UniProt P54646+O43741+P54619+Q9UGJ0+Q9Y478+Q13131+Q9UGI9); experiment: Inhibition of AMPK in human HeLa cells assessed as kinase phosphorylation level at 5 uM incubated for 6 hrs by SDS-PAGE based chemiluminescence assay; format: cell-based; design: scale not given: the % may be the effect or the level left
[6] = molecular target: T1, Ribosomal protein S6 kinase (Homo sapiens) (UniProt P51812+Q9UBS0+O75676+Q15349+O75582+P23443+Q9UK32+Q15418); experiment: Inhibition of RPS6 kinase in human HeLa cells assessed as p-RPS6 Ser235/236 phosphorylation level at 5 uM incubated for 6 hrs by SDS-PAGE based chemiluminescence assay; format: cell-based; design: scale not given: the % may be the effect or the level left
[7] = molecular target: T1, Ribosomal protein S6 kinase (Homo sapiens); experiment: Inhibition of RPS6 kinase in human HeLa cells assessed as p-RPS6 Ser240/244 phosphorylation level at 5 uM incubated for 6 hrs by SDS-PAGE based chemiluminescence assay; format: cell-based; design: scale not given: the % may be the effect or the level left
FaDu [8] = experiment: Cytotoxic activity against human FADU cancer stem cells incubated for 72 hrs by Cell-titer-Glo luminescence assay; format: functional, cell-based
[9] = molecular target: Serine/threonine-protein kinase RIO2 (Homo sapiens) (UniProt Q9BVS4); experiment: Inhibition of N-terminal GST-fused full length human recombinant RIOK2 expressed in baculovirus Sf21 cells assessed as reduction in kinase auto-phosphorylation at 10 uM in presence of ATP incubated for 1 hr by ELISA method
ACHN [10] = experiment: Cytotoxic activity against human ACHN cancer stem cells incubated for 72 hrs by Cell-titer-Glo luminescence assay; format: functional, cell-based

Chain of Serine/threonine-protein kinase RIO2 (Homo sapiens) (Q9BVS4 whole entry, looked up, the tested form may be a part): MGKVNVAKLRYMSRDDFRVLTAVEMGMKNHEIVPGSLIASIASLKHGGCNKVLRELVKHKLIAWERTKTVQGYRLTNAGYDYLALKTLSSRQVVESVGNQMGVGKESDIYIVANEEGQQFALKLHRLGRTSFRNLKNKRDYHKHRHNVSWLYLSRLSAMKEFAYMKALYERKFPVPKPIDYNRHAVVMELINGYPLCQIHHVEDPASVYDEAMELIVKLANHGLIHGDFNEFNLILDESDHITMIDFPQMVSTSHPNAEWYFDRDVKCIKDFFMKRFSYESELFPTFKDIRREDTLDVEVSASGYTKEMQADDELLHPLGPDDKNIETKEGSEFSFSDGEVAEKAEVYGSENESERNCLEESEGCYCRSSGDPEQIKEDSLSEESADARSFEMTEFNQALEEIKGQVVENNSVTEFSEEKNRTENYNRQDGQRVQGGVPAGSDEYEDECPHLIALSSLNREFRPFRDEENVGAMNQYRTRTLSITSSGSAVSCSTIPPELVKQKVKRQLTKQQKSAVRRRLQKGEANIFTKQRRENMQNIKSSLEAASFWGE

SMILES | Activity [5] [%] | Activity [6] [%] | Activity [7] [%] | inhibition [9] [%] | IC50 (FaDu [1]) [µM] | IC50 (A549 [2]) [µM] | IC50 (ACHN [3]) [µM] | IC50 (A549 [4]) [µM] | IC50 (FaDu [8]) [µM] | IC50 (ACHN [10]) [µM]
COc1ccc(-c2cccc3c2NC(=O)/C3=C\c2[nH]c(C)cc2C)cn1 | 91 | 63 | 59 | – | 28.4 | 24.4 | 28.3 | 43.4 | – | –
Cc1cc(C)c(/C=C2\C(=O)Nc3cccc(-c4cncnc4)c32)[nH]1 | 198 | 44 | 43 | – | 39.7 | 16.3 | 16.8 | – | – | –
COc1ncccc1-c1cccc2c1/C(=C/c1[nH]c(C)cc1C)C(=O)N2 | 105 | 67 | 67 | – | 22.6 | – | – | – | – | –
Cc1cc(C)c(/C=C2\C(=O)Nc3c2cccc3-c2cncc3ccccc23)[nH]1 | 108 | 86 | 83 | – | 25.8 | 19.7 | 21 | – | – | –
Cc1[nH]c(/C=C2\C(=O)Nc3ccc(-c4nnc(-c5ccccc5)s4)cc32)c(C)c1C(=O)N1CCN(C)CC1 | – | – | – | 19 | 14.1 | 48.9 | – | – | 0.23 | –
Cc1[nH]c(/C=C2\C(=O)Nc3cc(-c4csc(-c5ccccc5)n4)ccc32)c(C)c1C(=O)N1CCOCC1 | 118 | 4 | 44 | – | – | – | – | – | 41.9 | –
Cc1cc(C)c(/C=C2\C(=O)Nc3c2cccc3-c2cncnc2)[nH]1 | 113 | 51 | 50 | – | 28.1 | 25.2 | 26.9 | – | – | –
CCN(CC)CCNC(=O)c1c(C)[nH]c(/C=C2\C(=O)Nc3cc(-c4cnc5ccccc5n4)ccc32)c1C | – | – | – | – | 7.45 | 7.07 | 10.9 | 42.6 | 2.24 | 6.97
Cc1cc(C)c(/C=C2\C(=O)Nc3ccc(-c4n[nH]c5ccccc45)cc32)[nH]1 | – | – | – | – | 4.43 | 6.45 | 8.73 | 7.28 | 5.33 | 3.1

The next lines start with results.

Activity [5] [%] | Activity [6] [%] | Activity [7] [%] | inhibition [9] [%] | SMILES | IC50 (FaDu [1]) [µM] | IC50 (A549 [2]) [µM] | IC50 (ACHN [3]) [µM] | IC50 (A549 [4]) [µM] | IC50 (FaDu [8]) [µM] | IC50 (ACHN [10]) [µM]
21 | 5 | 41 | – | CCN(CC)CCNC(=O)c1c(C)[nH]c(/C=C2\C(=O)Nc3ccc(-c4ccc(-c5cccs5)s4)cc32)c1C | 2.51 | – | – | – | 0.83 | –
79 | 70 | 83 | – | COC(=O)c1c(C)[nH]c(/C=C2\C(=O)Nc3ccc(-c4csc(C5CCNCC5)n4)cc32)c1C | 0.69 | 0.7 | 0.52 | 2.48 | 0.22 | –
150 | 5 | 56 | – | CCN(CC)CCNC(=O)c1c(C)[nH]c(/C=C2\C(=O)Nc3cc(-c4ccc(-c5ccccc5)s4)ccc32)c1C | – | – | – | – | 30.5 | –
– | – | – | 79 | Cc1[nH]c(/C=C2\C(=O)Nc3ccc(-c4cnn(-c5ccccc5)c4)cc32)c(C)c1C(=O)NCc1nc2ccccc2[nH]1 | – | – | – | – | – | –
83 | 68 | 65 | – | Cc1cc(C)c(/C=C2\C(=O)Nc3c2cccc3-c2ccncc2)[nH]1 | – | 23.5 | – | – | – | –
– | – | – | 69 | Cc1[nH]c(/C=C2\C(=O)Nc3ccc(-c4cnn(-c5ccccc5)c4)cc32)c(C)c1C(=O)NC1CNCC(c2ccccc2)C1 (stereo not drawn) | – | – | – | – | – | –
– | – | – | 65 | Cc1[nH]c(/C=C2\C(=O)Nc3ccc(-c4ccc(-c5ccccc5)s4)cc32)c(C)c1C(=O)N1CCN(C)CC1 | 25.4 | – | – | – | 1.16 | –
145 | 77 | 75 | – | COc1ncc(-c2cccc3c2/C(=C/c2[nH]c(C)cc2C)C(=O)N3)cn1 | 35.3 | 21.1 | 28.1 | – | – | –
– | – | – | 14 | CCN(CC)CCNC(=O)c1c(C)[nH]c(/C=C2\C(=O)Nc3ccc(-c4ccc(-c5ccccc5)s4)cc32)c1C | 4.74 | – | 7.6 | – | 1.2 | –
108 | 36 | 68 | – | Cc1[nH]c(/C=C2\C(=O)Nc3cc(-c4ccc(-c5ccccc5)s4)ccc32)c(C)c1C(=O)N1CCN(C)CC1 | – | – | – | – | – | –

Source: ChEMBL document CHEMBL3727348, “3-(aryl or heteroaryl) methyleneindolin-2-one derivatives as inhibitors of cancer stem cell pathway kinases for the treatment of cancer” (2014)
